# Assay results taken from patent US20170273901A1, “SUNITINIB FORMULATIONS AND METHODS FOR USE THEREOF IN TREATMENT OF OCULAR DISORDERS” (THE JOHNS HOPKINS UNIVERSITY, priority 2014, published 2017).
# Assays:
# corneal NV = test: Treatment of suture-induced corneal NV, quantitative analysis of NV area and length; format: in vivo, Sprague Dawley rats; conditions: single SC injection 30 μL, 5 mg sunb-malate/mL; POD 5, 7, 14
# From the text: Corneal NV was induced by intrastromal suturing. […] The distance between the stitch and the limbus was approximately 2 mm while there was a distance of 1 mm between the two stitches. […] Erythromycin antibiotic ointment was applied to prevent potential infection and corneal dry-up. The rats were followed for 2 weeks. The corneas of all rats were examined by slit-lamp biomicroscope (SL120; Carl Zeiss AG, Oberkochen, Germany) and corneal photographs were taken with a digital camera. The area and length of vascularized cornea were quantified with Photoshop CS3.0. The arc was drawn along the limbus, the vascularized area pixel measured and the corneal NV area was calculated using the following equation: The vascularized area was evenly divided into six sections. The distance between vessel tips and the limbus at the five intersection points of the arc was measured. The average of the five measured lengths was regarded as the corneal NV length.
# [1] = Drug ocular retention in vivo after SC injection (autofluorescence imaging of eyeballs); design: species or system Sprague Dawley rats; conditions: rat eye
# Procedure: At post injection (PI) day 0, 1, 3, 7, 14 and 28, the whole eyeballs (n=4) were harvested after the animals were sacrificed. […] The fluorescent images were analyzed using the Living Image 3.0 software (Caliper Lifesciences, Inc.), and the retention of sunitinib was quantified by comparing to the fluorescence counts of the eye immediately undertaken SC injection. Rat eyes without SC injection were used as the baseline.
# [2] = Solubility of sunb-malate in PBS; format: physicochemical
structure (smiles),measurement,setting,value
"CCN(CC)CCNC(=O)c1c(C)[nH]c(/C=C2\C(=O)Nc3ccc(F)cc32)c1C.O=C(O)C[C@H](O)C(=O)O [Sunb-malate free drug, Sunitinib malate]",inhibition of corneal NV (length and area),corneal NV,negligible effect
same,time to clearance after SC injection,[1]; 30 μL of 5 mg/mL,≤ 1 days
same,time to almost no drug retention in the eye,[1]; SC injection,≤ 24 h
same,concentration dissolved in PBS,[2],at least 25 mg/mL
